We go through 4 compounds from ChEMBL document CHEMBL1139192, “Novel bis(indolyl)maleimide pyridinophanes that are potent, selective inhibitors of glycogen synthase kinase-3” (Bioorg Med Chem Lett, 2007).

The species named for one experiment is Mus musculus. Nature of the experiment: Inhibition of mouse MAPK2 at 1 uM relative to control; values are per cent of control.
For experiment [1], the target named is T1, Serine/threonine-protein kinase D2 (Homo sapiens) (UniProt Q9BZL6).
T1 sequence (whole entry): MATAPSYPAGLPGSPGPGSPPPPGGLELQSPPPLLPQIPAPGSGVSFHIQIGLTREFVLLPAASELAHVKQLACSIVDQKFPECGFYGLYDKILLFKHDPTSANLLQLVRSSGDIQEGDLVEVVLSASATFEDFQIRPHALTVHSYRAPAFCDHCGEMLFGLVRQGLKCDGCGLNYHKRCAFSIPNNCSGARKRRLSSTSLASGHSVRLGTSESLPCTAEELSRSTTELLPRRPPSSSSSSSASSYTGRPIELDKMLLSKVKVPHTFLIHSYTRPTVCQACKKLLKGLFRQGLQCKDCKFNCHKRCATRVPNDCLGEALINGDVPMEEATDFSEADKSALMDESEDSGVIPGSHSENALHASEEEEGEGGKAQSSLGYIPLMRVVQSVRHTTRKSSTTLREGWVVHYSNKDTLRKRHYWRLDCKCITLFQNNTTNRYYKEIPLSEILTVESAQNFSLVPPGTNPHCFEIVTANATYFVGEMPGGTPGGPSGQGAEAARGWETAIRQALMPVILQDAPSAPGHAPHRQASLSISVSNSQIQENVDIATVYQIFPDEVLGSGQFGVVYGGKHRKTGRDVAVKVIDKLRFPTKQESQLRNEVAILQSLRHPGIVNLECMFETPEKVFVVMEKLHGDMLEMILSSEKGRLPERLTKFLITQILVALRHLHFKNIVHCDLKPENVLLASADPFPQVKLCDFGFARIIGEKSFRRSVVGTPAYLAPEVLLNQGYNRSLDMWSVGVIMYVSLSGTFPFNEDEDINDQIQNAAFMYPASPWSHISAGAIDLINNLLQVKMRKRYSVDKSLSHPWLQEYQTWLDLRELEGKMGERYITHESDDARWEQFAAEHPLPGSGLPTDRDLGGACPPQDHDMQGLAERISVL
Put plainly: Inhibition of human PKD2 at 1 uM relative to control; values are per cent of control.

In experiment [2] the target is Mitogen-activated protein kinase 11 (Homo sapiens) (UniProt Q15759). Put plainly: Inhibition of human SAPK2b at 1 uM relative to control; values are per cent of control.
Experiment [3] has as its target T2, Mitogen-activated protein kinase 12 (Homo sapiens) (UniProt P53778).
T2 sequence (whole entry): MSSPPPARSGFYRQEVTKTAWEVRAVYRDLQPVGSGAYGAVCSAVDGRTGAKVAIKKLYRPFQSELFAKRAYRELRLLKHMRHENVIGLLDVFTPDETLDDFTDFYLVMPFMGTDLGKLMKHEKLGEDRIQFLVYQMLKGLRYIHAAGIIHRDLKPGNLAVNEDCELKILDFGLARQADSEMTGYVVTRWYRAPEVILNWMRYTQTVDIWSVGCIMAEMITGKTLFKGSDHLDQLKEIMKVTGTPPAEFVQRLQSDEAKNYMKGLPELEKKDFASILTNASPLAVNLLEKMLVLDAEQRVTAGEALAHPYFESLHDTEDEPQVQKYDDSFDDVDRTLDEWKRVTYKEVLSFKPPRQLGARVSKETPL
Nature of the experiment: Inhibition of human SAPK3 at 1 uM relative to control; values are per cent of control.

The species entered for a further experiment is Homo sapiens. Nature of the experiment: Residual activity of human PKBgamma at 1 uM relative to control.
In experiment [4] the target is T3, Protein kinase C zeta type (Homo sapiens) (UniProt Q05513).
T3 sequence (whole entry): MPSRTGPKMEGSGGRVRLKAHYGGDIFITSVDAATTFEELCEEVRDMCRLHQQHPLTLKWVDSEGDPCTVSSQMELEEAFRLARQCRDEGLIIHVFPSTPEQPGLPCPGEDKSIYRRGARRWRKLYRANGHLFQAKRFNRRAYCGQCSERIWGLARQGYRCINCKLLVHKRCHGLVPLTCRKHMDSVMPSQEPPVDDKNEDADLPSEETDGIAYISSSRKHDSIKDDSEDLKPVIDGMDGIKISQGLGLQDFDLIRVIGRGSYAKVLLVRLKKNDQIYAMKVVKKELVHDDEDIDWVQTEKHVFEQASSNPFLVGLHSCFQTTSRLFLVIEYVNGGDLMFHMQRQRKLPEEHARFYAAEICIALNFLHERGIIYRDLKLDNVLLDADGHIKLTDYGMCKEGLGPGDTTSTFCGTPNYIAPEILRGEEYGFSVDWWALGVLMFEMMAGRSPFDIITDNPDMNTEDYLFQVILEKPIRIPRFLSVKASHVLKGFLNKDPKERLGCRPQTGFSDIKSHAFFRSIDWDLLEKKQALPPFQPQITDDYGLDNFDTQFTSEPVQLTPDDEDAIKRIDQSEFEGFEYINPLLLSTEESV
Put plainly: Residual activity of human PKCzeta at 1 uM relative to control.

Experiment [5] has as its target Serine/threonine-protein kinase N2 (Homo sapiens) (UniProt Q16513). Put plainly: Residual activity of human PRK2 at 1 uM relative to control.
In experiment [6] the target is Tyrosine-protein kinase Lyn (Mus musculus) (UniProt P25911). Nature of the experiment: Inhibition of mouse Lyn at 1 uM relative to control; values are per cent of control.
Sequence of Tyrosine-protein kinase Lyn (Mus musculus) (P25911 whole entry): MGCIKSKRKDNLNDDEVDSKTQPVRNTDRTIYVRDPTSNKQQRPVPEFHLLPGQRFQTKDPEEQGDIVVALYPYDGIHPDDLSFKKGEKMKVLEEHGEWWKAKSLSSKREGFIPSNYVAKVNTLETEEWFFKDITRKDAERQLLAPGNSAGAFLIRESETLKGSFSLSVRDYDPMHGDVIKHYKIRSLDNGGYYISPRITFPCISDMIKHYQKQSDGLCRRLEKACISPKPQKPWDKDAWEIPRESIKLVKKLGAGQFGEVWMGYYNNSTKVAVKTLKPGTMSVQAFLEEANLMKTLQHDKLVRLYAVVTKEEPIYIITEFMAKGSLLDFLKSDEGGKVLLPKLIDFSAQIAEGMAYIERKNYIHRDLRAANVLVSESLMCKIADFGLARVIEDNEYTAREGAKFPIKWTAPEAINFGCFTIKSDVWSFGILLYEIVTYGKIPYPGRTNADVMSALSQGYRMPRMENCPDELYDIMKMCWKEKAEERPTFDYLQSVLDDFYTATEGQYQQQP
Experiment [7] deals with Cyclin-dependent kinase 5/CDK5 activator 1 (Homo sapiens) (UniProt Q00535+Q15078). Put plainly: Inhibition of human CDK5/p35 at 1 uM relative to control; values are per cent of control.
The target of experiment [8] is Tyrosine-protein kinase Yes (Homo sapiens) (UniProt P07947). Put plainly: Inhibition of human Yes kinase at 1 uM relative to control; values are per cent of control.
Sequence of Tyrosine-protein kinase Yes (Homo sapiens) (P07947 2-543 limits assumed): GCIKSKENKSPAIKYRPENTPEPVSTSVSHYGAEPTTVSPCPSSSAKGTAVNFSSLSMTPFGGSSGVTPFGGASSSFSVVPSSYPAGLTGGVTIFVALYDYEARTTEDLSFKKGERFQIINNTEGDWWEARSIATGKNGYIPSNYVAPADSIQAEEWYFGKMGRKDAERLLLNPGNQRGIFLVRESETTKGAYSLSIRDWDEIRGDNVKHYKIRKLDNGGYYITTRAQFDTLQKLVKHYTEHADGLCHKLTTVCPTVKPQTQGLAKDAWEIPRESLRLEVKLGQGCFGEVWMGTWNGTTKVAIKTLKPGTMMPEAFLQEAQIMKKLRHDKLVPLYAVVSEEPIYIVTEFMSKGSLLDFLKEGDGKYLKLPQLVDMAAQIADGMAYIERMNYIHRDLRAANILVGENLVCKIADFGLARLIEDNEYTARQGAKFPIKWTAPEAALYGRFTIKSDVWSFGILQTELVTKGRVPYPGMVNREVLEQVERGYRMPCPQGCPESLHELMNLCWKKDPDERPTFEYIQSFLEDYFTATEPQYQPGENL
Experiment [9] deals with Ribosomal protein S6 kinase alpha-2 (Homo sapiens) (UniProt Q15349). Nature of the experiment: Inhibition of human Rsk2 at 1 uM relative to control; values are per cent of control.
Experiment [10] addresses ALK tyrosine kinase receptor (Homo sapiens) (UniProt Q9UM73). Put plainly: Inhibition of ALK at 1 uM relative to control; values are per cent of control.
The target of experiment [11] is Protein kinase C eta type (Homo sapiens) (UniProt P24723). Put plainly: Residual activity of human PKCeta at 1 uM relative to control.
Sequence of Protein kinase C eta type (Homo sapiens) (P24723 whole entry): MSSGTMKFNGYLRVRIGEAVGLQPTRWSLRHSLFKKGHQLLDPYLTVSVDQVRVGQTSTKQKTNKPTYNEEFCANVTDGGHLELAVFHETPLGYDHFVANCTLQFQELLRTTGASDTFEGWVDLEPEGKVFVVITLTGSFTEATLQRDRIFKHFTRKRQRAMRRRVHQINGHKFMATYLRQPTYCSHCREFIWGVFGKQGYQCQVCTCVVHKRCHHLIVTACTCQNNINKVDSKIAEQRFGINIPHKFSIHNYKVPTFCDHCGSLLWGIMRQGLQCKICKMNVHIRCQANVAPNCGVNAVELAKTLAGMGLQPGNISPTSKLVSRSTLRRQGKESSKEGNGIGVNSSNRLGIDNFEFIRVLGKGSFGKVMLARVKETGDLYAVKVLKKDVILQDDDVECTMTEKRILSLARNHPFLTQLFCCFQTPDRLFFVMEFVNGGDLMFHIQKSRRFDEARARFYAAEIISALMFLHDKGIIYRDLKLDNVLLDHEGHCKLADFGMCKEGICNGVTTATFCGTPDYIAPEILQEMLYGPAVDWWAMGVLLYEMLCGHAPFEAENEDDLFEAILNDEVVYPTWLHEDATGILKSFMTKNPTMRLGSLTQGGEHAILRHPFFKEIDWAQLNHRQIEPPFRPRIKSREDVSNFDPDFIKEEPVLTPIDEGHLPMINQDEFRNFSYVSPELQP
For experiment [12], the target named is Tyrosine-protein kinase ZAP-70 (Homo sapiens) (UniProt P43403). Put plainly: Residual activity of human ZAP70 kinase at 1 uM relative to control.
Sequence of Tyrosine-protein kinase ZAP-70 (Homo sapiens) (P43403 whole entry, looked up): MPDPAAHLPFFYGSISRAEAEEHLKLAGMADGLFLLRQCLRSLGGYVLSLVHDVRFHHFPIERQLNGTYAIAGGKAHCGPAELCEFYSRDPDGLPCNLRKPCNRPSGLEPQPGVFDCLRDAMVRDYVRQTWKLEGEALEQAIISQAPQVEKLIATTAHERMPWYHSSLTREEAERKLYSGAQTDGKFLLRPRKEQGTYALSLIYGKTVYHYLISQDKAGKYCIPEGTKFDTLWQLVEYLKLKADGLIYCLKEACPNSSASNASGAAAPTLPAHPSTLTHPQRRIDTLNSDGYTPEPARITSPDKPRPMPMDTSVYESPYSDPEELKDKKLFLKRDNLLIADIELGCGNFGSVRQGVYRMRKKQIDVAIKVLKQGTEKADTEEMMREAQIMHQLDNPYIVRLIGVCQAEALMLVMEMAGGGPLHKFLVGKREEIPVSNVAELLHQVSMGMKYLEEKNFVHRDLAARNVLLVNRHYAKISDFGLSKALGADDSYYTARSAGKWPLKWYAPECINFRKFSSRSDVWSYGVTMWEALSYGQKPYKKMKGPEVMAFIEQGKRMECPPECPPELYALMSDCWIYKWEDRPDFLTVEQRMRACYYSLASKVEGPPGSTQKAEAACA
A further experiment relates to Saccharomyces cerevisiae. Put plainly: Residual activity of yeast CK1 at 1 uM relative to control.

Structures are written as SMILES.

Sequence of Serine/threonine-protein kinase N2 (Homo sapiens) (Q16513 whole entry, looked up): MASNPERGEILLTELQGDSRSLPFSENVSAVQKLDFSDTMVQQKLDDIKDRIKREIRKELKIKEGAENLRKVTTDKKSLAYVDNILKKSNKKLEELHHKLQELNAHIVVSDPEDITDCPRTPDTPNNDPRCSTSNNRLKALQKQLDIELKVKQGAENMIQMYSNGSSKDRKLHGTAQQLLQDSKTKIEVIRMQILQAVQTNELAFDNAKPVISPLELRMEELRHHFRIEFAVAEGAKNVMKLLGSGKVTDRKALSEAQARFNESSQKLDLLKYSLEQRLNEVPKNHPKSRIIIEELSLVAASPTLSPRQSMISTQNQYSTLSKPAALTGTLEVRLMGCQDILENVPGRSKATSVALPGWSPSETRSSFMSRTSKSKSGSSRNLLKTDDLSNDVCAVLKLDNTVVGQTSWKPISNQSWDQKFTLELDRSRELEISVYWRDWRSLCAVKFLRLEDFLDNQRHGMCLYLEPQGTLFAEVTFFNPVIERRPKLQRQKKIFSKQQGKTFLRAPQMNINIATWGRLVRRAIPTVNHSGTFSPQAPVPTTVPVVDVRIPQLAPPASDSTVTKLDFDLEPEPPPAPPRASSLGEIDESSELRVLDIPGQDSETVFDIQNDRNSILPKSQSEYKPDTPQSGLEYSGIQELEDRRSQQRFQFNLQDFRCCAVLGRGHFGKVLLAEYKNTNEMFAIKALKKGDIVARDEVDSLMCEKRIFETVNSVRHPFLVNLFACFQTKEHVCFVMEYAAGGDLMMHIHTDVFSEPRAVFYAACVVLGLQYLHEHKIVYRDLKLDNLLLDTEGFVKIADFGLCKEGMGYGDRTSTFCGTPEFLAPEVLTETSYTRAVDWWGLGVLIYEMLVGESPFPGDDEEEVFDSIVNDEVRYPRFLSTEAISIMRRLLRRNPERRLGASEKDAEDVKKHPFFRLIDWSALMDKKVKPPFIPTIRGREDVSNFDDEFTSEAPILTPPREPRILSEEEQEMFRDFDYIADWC
Sequence of ALK tyrosine kinase receptor (Homo sapiens) (Q9UM73 19-1620 limits assumed): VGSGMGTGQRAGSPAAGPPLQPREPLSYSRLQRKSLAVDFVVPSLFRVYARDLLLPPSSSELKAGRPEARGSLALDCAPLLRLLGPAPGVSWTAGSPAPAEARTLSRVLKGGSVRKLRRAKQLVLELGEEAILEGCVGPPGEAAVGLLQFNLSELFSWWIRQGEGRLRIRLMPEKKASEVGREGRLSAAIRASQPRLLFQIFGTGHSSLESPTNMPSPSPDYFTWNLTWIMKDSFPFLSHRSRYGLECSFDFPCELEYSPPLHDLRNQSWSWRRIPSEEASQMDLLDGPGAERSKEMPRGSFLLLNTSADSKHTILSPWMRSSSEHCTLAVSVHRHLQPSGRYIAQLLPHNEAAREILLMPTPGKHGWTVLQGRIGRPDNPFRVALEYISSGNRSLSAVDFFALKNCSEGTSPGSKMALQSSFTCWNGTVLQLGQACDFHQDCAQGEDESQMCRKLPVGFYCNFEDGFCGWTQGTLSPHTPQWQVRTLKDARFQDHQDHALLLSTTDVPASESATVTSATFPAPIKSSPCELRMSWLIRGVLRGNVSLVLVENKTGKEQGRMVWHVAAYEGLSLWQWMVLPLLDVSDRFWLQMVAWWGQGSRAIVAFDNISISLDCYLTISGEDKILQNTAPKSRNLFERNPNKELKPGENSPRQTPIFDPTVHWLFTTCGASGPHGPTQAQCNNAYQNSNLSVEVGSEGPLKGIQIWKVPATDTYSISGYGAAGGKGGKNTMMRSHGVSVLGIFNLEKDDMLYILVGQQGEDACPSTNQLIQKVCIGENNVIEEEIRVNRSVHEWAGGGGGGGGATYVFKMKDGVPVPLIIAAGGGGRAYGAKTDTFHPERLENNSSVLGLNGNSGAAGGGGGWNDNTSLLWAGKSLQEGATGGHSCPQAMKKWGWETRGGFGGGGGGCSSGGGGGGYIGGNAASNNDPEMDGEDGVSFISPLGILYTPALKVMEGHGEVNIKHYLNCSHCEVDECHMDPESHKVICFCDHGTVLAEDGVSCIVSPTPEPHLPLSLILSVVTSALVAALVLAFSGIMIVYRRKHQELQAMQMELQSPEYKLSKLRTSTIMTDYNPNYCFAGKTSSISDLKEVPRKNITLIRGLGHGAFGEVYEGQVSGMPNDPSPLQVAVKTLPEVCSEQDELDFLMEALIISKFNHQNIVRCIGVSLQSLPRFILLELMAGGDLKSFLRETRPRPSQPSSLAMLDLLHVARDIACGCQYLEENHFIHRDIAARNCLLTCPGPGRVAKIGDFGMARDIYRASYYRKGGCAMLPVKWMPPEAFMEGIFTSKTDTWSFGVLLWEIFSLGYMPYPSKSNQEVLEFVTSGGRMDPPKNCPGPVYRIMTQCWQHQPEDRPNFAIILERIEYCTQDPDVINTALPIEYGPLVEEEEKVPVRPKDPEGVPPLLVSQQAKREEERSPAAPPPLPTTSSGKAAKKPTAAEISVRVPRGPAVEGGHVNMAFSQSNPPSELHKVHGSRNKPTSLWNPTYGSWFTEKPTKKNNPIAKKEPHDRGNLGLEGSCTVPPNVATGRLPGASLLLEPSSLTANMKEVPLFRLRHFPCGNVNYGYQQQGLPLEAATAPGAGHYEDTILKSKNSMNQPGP

In the case of `O=C1NC(=O)C2=C1c1cn(c3ccccc13)CCCc1ccc(c(N3CCCC3)n1)CCCn1cc2c2ccccc21`, the residual activity in the experiment filed under Mus musculus was 99%; in experiment [1], 115%; in experiment [2] it was 99%; in experiment [3] it was 114%; in the experiment listed under Homo sapiens it was 105%; in experiment [4] it was 116%. The residual activity in [5] was found to be 126%; in [6] it was 104%; in [7] it was 104%; in [8], 43%; in experiment [9], 63%; in experiment [10], 74%. The figures for the residual activity in experiment [11] and in experiment [12] were 90% and 121%, respectively.

On to `O=C1NC(=O)C2=C1c1cn(c3ccccc13)CCCc1cc(nc(N3CCCC3)c1)CCCn1cc2c2ccccc21`, for which the residual activity in the experiment filed under Mus musculus was 103%; in experiment [1], 103%; with Saccharomyces cerevisiae, 99%; in experiment [2] it was 114%; in [3], 103%; in the experiment listed under Homo sapiens, 103%. Also, the residual activity came out at 99% in [4]; 110% in [5]; 99% in [6]; 99% in experiment [7]; 58% in experiment [8]; 12% in experiment [9]. In addition, the residual activity in experiment [10] was determined as 58%; in [11], 121%; in experiment [12] it was 115%.

Take `CN(C)c1nc2ccc1CCCn1cc(c3ccccc31)C1=C(C(=O)NC1=O)c1cn(c3ccccc13)CC2`: the residual activity in the experiment listed under Mus musculus amounted to 95%; in experiment [1] it was 100%; with Saccharomyces cerevisiae, 91%; in experiment [2], 104%; in [3], 78%; in the experiment filed under Homo sapiens, 93%. Besides, the residual activity in [4] worked out at 98%; in experiment [5], 106%; in [6], 90%; in [7] it was 99%; in experiment [8], 96%; in experiment [9], 32%. Besides, the residual activity came out at 103% in experiment [10], 104% in experiment [11] and 113% in experiment [12].

Take `CN(C)c1cc2cc(n1)CCCn1cc(c3ccccc31)C1=C(C(=O)NC1=O)c1cn(c3ccccc13)CCC2`: the residual activity in the experiment listed under Mus musculus was determined as 95%; in [1] it was 97%; with Saccharomyces cerevisiae it was 98%; in experiment [2] it was 119%; in experiment [3], 115%; in the experiment listed under Homo sapiens, 106%. The residual activity in experiment [4] stood at 105%; in experiment [5], 113%; in experiment [6], 102%; in [7], 105%; in [8], 79%; in [9] it was 10%. Moreover, the residual activity in experiment [10] is 55%; in experiment [11], 117%; in experiment [12], 103%.
